Reference: patent US6673823B2, “Use of peroxisome proliferator activated receptor (PPAR)-γ ligands as a treatment for pituitary tumors and associated conditions, such as Cushing's syndrome” (Cedars-Sinai Medical Center, priority 2002, dated 2004)

How the values were obtained:
[1] = system: Mouse corticotroph AtT20 pituitary tumor cells; test: Prevention of subcutaneous corticotroph tumor development in athymic nude mice; format: in vivo; conditions: oral 150 mg/kg/day, 4 weeks
[2] = system: AtT20 mouse pituitary (ACTH-secreting) tumor cells; test: Cell cycle distribution (FACS, propidium iodide); format: cell-based; conditions: 10^−6 to 10^−4 M, up to 48 h serum-free or up to 96 h serum-replete
Procedure: Cell Culture. […] Medium was replenished with ligands every 2 days, and cells maintained in serum-containing medium or in serum-free medium for up to 96 hours.
Cell Cycle Distribution. Following treatments, AtT20 cells were trypsinized, centrifuged (1500 rpm×2 min), washed with PBS, and treated with 20 µg/mL Rnase A (Calbiochem, La Jolla, Calif.). DNA was stained with 100 μg/mL propidium iodide (PI) for 30 min at 40° C. and protected from light, prior to analysis with a FACScan (Becton Dickinson, Franklin Lakes, N.J.). DNA histogram analysis was performed using the modFitLT software.
To determine the functional significance of pituitary corticotroph PPAR-γ expression, the effects of PPAR-γ ligands were tested on ACTH-secreting pituitary tumor cells in vitro. Troglitazone or rosiglitazone-treatment (10^−6 to 10^−4 M) for up to 48 hours, when cells were maintained in serum-free conditions, or up to 96 hours, when cells were maintained in serum-replete conditions, induced G0-G1 cell-cycle arrest (control, G1 75±4% vs. ros, G1 85±2%, p=0.009), and led to decreased S-phase cells (control, 18±0.05% vs. ros, 12±0.5%, p=0.001) (FIG. 3A).

[3] = system: AtT20 cells; test: TUNEL apoptosis analysis; format: cell-based, mouse
Procedure: Terminal Deoxynucleotidyltransferase-mediated dUTP Nick End Labeling (TUNEL). Apoptosis-induced nuclear DNA fragmentation was detected using the in situ cell death detection kit, TMR red (Roche Diagnostics, Indianapolis, IN) following the manufacturer's protocol. Briefly, 48 hours following treatment with thiazolidinedione compounds (TZDs), AtT20 cells were fixed in 4% paraformaldehyde, permeabilized with 0.1% sodium citrate/ 0.6% Tween 20 (pH 7.4) for 2 min at 4° C. prior to incubation in Tunel reaction mix (TMR red/dNTP mix, TdT, and labeling buffer) for 60 min at 37° C. Slides were washed (3×5 min) in PBS/ Triton/ BSA (0.3%) and visualized on an Olympus BH2 immunofluorescent microscope.

CN(CCOc1ccc(CC2SC(=O)NC2=O)cc1)c1ccccn1 (racemic) [rosiglitazone, (±)-5-[[4-[2-(methyl-2-pyridinylamino)ethoxy]phenyl]methyl]-2,4-thiazolidinedione,(Z)-2-butenedioate]
tumor diameter ([1]; control 1-2 cm): 0.1 cm | serum corticosterone, mean±SEM ([1]; vehicle 785±374, p<0.05): 113 ± 17 ng/mL | plasma ACTH, mean±SEM ([1]; vehicle 2085±847, p<0.05): 98 ± 33 pg/mL | S-phase cells ([2]; control 18±0.05%, p=0.001): 12±0.5% | cells in G1 (G0-G1 cell-cycle arrest) ([2]; control 75±4%, p=0.009): 85±2% | % apoptosis (TUNEL) ([3]; 10^−5 M, control 33±3%, p<0.001): 69±7% | % apoptosis (TUNEL) ([3]; 10^−6 M, control 33±3%, p<0.001): 47±4% | increase in apoptosis (TUNEL) ([3]; 48 hours after treatment, vs. control): 2 fold | % apoptosis (TUNEL) ([3]; CRH 50 nM & ros 10^−5 M (pre-treatment before CRH), p<0.05 vs CRH): 19±3%
